Measured values reported in the CheMixHub viscosity set.
Several values for one entry are separate records, joined by “and”; a condition that tells them apart may be missing. Equal values may be shown once.

Assay: xn = mol fraction of the nth substance listed

CC(=O)O + Cc1ccc(C)cc1
viscosity, 101 kPa
Details	x2 = 0.0592	x2 = 0.124	x2 = 0.1952	x2 = 0.2738	x2 = 0.3615	x2 = 0.4596	x2 = 0.569	x2 = 0.6934	x2 = 0.8354
303.15 K	0.8817 mPa·s and 0.882 mPa·s	0.7951 mPa·s and 0.795 mPa·s	0.7314 mPa·s and 0.731 mPa·s	0.6755 mPa·s and 0.676 mPa·s	0.6446 mPa·s and 0.645 mPa·s	0.6109 mPa·s and 0.611 mPa·s	0.5923 mPa·s and 0.592 mPa·s	0.58 mPa·s and 0.58 mPa·s	0.571 mPa·s and 0.571 mPa·s
308.15 K	0.8236 mPa·s	0.7455 mPa·s	0.685 mPa·s	0.6373 mPa·s	0.6095 mPa·s	0.5737 mPa·s	0.5606 mPa·s	0.5476 mPa·s	0.5393 mPa·s
313.15 K	0.7876 mPa·s	0.7172 mPa·s	0.6617 mPa·s	0.6171 mPa·s	0.5816 mPa·s	0.5522 mPa·s	–	0.5233 mPa·s	–
318.15 K	0.7347 mPa·s	0.6716 mPa·s	0.6249 mPa·s	0.5798 mPa·s	0.5483 mPa·s	0.5222 mPa·s	0.5018 mPa·s	0.4927 mPa·s	0.4862 mPa·s
323.15 K	0.6874 mPa·s and 0.687 mPa·s	0.6339 mPa·s and 0.634 mPa·s	0.5878 mPa·s and 0.588 mPa·s	0.5468 mPa·s and 0.547 mPa·s	0.5158 mPa·s and 0.516 mPa·s	0.4913 mPa·s and 0.491 mPa·s	0.4775 mPa·s and 0.478 mPa·s	0.4674 mPa·s and 0.467 mPa·s	0.4608 mPa·s and 0.461 mPa·s

ClCCl + Cc1ccc(C)cc1
101 kPa
Details	viscosity [mPa·s]
293.15 K, x1 = 0.2949	0.59
293.15 K, x1 = 0.4409	0.561
293.15 K, x1 = 0.5522	0.535
293.15 K, x1 = 0.609	0.522
293.15 K, x1 = 0.6936	0.504
293.15 K, x1 = 0.7459	0.492
293.15 K, x1 = 0.8125	0.476
293.15 K, x1 = 0.8558	0.468
298.15 K, x1 = 0.2347	0.568
298.15 K, x1 = 0.3846	0.541
298.15 K, x1 = 0.4518	0.529
298.15 K, x1 = 0.5662	0.504
298.15 K, x1 = 0.6375	0.488
298.15 K, x1 = 0.6972	0.476
298.15 K, x1 = 0.7342	0.467
298.15 K, x1 = 0.7892	0.457
298.15 K, x1 = 0.8376	0.451
303.15 K, x1 = 0.2286	0.539
303.15 K, x1 = 0.3627	0.515
303.15 K, x1 = 0.4362	0.502
303.15 K, x1 = 0.5371	0.483
303.15 K, x1 = 0.624	0.463
303.15 K, x1 = 0.6948	0.448
303.15 K, x1 = 0.7643	0.433
303.15 K, x1 = 0.818	0.427

CC(=O)O + Cc1cccc(C)c1
viscosity [mPa·s], 101.3 kPa
Details	x2 = 0.1087	x2 = 0.218	x2 = 0.2726	x2 = 0.3467	x2 = 0.4518	x2 = 0.5763	x2 = 0.6567	x2 = 0.7671	x2 = 0.8589
298.15 K	0.952	0.809	0.753	0.7	0.648	0.618	0.603	0.591	0.579
303.15 K	0.861	0.746	0.707	0.655	0.615	0.582	0.568	0.554	0.545
313.15 K	0.777	0.665	0.624	0.58	0.543	0.519	0.507	0.501	0.494
323.15 K	0.687	0.59	0.554	0.518	0.483	0.466	0.459	0.451	0.444

ClCCl + Cc1cccc(C)c1
101 kPa
Details	viscosity [mPa·s]
293.15 K, x1 = 0.2258	0.583
293.15 K, x1 = 0.4249	0.553
293.15 K, x1 = 0.4896	0.541
293.15 K, x1 = 0.5542	0.528
293.15 K, x1 = 0.6288	0.512
293.15 K, x1 = 0.769	0.482
293.15 K, x1 = 0.8151	0.472
298.15 K, x1 = 0.2398	0.55
298.15 K, x1 = 0.4075	0.527
298.15 K, x1 = 0.4997	0.511
298.15 K, x1 = 0.5622	0.501
298.15 K, x1 = 0.6288	0.485
298.15 K, x1 = 0.6891	0.474
298.15 K, x1 = 0.7634	0.461
298.15 K, x1 = 0.8183	0.451
298.15 K, x1 = 0.8586	0.446
303.15 K, x1 = 0.3947	0.501
303.15 K, x1 = 0.4925	0.483
303.15 K, x1 = 0.5836	0.466
303.15 K, x1 = 0.6551	0.453
303.15 K, x1 = 0.7164	0.441
303.15 K, x1 = 0.7934	0.428
303.15 K, x1 = 0.8418	0.421
303.15 K, x1 = 0.8669	0.417

ClCCl + Cc1ccccc1
101 kPa
Details	viscosity [mPa·s]
293.15 K, x1 = 0.1635	0.564
293.15 K, x1 = 0.3002	0.543
293.15 K, x1 = 0.4025	0.528
293.15 K, x1 = 0.4771	0.517
293.15 K, x1 = 0.5025	0.511
293.15 K, x1 = 0.5801	0.498
293.15 K, x1 = 0.5919	0.496
293.15 K, x1 = 0.675	0.479
293.15 K, x1 = 0.7431	0.468
293.15 K, x1 = 0.788	0.465
298.15 K, x1 = 0.2198	0.525
298.15 K, x1 = 0.3271	0.51
298.15 K, x1 = 0.4201	0.497
298.15 K, x1 = 0.5108	0.48
298.15 K, x1 = 0.5701	0.472
298.15 K, x1 = 0.6325	0.462
298.15 K, x1 = 0.6841	0.455
298.15 K, x1 = 0.7201	0.45
298.15 K, x1 = 0.7501	0.447
303.15 K, x1 = 0.218	0.497
303.15 K, x1 = 0.3331	0.481
303.15 K, x1 = 0.4402	0.467
303.15 K, x1 = 0.5223	0.45
303.15 K, x1 = 0.6191	0.436
303.15 K, x1 = 0.694	0.424
303.15 K, x1 = 0.7651	0.415
303.15 K, x1 = 0.8053	0.412
